According to patent publication US7314858B2, “Retrocyclins: antiviral and antimicrobial peptides” (priority 2001, dated 2008):
Substitutions are numbered along the chain they refer to. “Also recorded” adds a separate entry of the source.

Key:
HSV-2 = assay: HSV inactivation microplate assay on ME-180 cells (MTT); type: cell-based; details: 2-50 μg/ml, 2 hrs with virus, 72 hrs culture
Protocol: FIG. 14. Inactivation of HSV-1 and HSV-2 by retrocyclin and RC-101. Retrocyclin (left panel) and RC-101 (right panel) at the indicated concentrations were incubated with herpes simplex virus, type 1 (HSV-1) or HSV-2 for 2 hrs and then added to ME-180 cell monolayers. Cells were incubated at 37° C. for 72 hrs, and cytotoxicity was measured with an MTT kit.
Some retrocyclins are slightly active against herpes simplex virus (HSV). To determine if the activity of retrocyclin against HIV-1 was specific or representative of a more global antiviral effect, it was tested its ability to prevent HSV infection in vitro. A quantitative microplate assay was used to screen retrocyclin and retrocyclin-congeners for their ability to inactivate HSV type 1 (HSV-1) and HSV-2. The assay utilized small amounts of peptide and simultaneously evaluated for peptide-induced cytotoxicity. In brief, final peptide concentrations of 2-50 μg/ml were incubated with virus stocks for 2 hrs and added directly to ME-180 human cervical carcinoma cells. Cultures were incubated at 37° C. for 72 hrs and cytotoxicity was measured using a 3-(4,5-dimethylthiazon-2-yl)-2,5-diphenyltetrazolium bromide (MTT) cell proliferation kit (Boehringer-Mannheim, Germany). Calculations to assess antiviral activity and compute “percent protection” are delineated in (90).

HIV-1 strain JR-CSF = assay: HIV-1 JR-CSF infection of CD4+ PBMC, p24 antigen ELISA; type: cell-based; details: JR-CSF (R5), peptide 10-20 μg/ml
Protocol: FIG. 5A-C. Anti-HIV-1 activity of retrocyclin. Two strains of HIV-1 and two types of human target cells were used. The IIIB strain is T-cell tropic (X4) and utilizes the CXCR4 co-receptor for entry; the JR-CSF strain is M-tropic (R5) and uses CCR5 for entry. PBMC signifies CD4^+-selected peripheral blood mononuclear cells. […] (A) Two concentrations of retrocyclin (2 μg/ml, 20 μg/ml), 20 μg/ml of the Rhesus circular defensin “RTD-1”, and 20 μg/ml of a horseshoe crab-derived peptide “T140”, reported to only prevent X4 infections, were tested in antiviral assays of against strain IIIB in H9 cells (n=2-6 per peptide; error bars indicate SEM). (B) To confirm our results with primary human cells, similar assays were performed utilizing IIIB virus and CD4^+ PBMC or (C) JR-CSF virus and CD4^+ PBMC. Peptides were not cytotoxic at indicated concentrations, measured by trypan blue exclusion. Average of duplicate experiments are reported for studies with PBMCs. Assay sensitivity=10 pg/ml.
(§1) Either HIV-1-permissive H9 cells were used as targets, or primary CD4^+ lymphocytes from HIV-1-seronegative donors generated from freshly purified peripheral blood mononuclear cells (PBMC) stimulated with a CD3-CD8 bispecific monoclonal antibody. After approximately 7 days, when 98% of these cells co-expressed CD3 and CD4, they were infected with HIV-1 with or without retrocyclin or other test peptide. These cells were maintained in RPMI containing 10% FCS supplemented with 2 mM glutamine, 100 U of penicillin/ml, 10 μg of streptomycin/ml, and 50 U of interleukin 2/ml (R10-50 media).
The p24 assay results shown in FIG. 9 are on a logarithmic scale. A horizontal reference line that passes through 100 on the ordinate scale corresponds to […] of p24 antigen. Results from 3 experiments (each performed with PBMC from a different donor) are shown.

HIV-1 strain IIIB [1] = assay: HIV-1 IIIB infection of CD4+ PBMC, p24 antigen ELISA; type: cell-based; details: CD4+ PBMC, IIIB (X4), peptide 10-20 μg/ml
Protocol: FIG. 5A-C. Anti-HIV-1 activity of retrocyclin. Two strains of HIV-1 and two types of human target cells were used. The IIIB strain is T-cell tropic (X4) and utilizes the CXCR4 co-receptor for entry; the JR-CSF strain is M-tropic (R5) and uses CCR5 for entry. PBMC signifies CD4^+-selected peripheral blood mononuclear cells. […] (A) Two concentrations of retrocyclin (2 μg/ml, 20 μg/ml), 20 μg/ml of the Rhesus circular defensin “RTD-1”, and 20 μg/ml of a horseshoe crab-derived peptide “T140”, reported to only prevent X4 infections, were tested in antiviral assays of against strain IIIB in H9 cells (n=2-6 per peptide; error bars indicate SEM). (B) To confirm our results with primary human cells, similar assays were performed utilizing IIIB virus and CD4^+ PBMC or (C) JR-CSF virus and CD4^+ PBMC. […] Average of duplicate experiments are reported for studies with PBMCs. Assay sensitivity=10 pg/ml.
as §1, with “After approximately 7 days, when 98% of these cells co-expressed CD3 and CD4, they were infected with HIV-1 with or without retrocyclin or other test peptide.” left out
Examining the effect of adding retrocyclin at various times pre- and post-HIV-1 infection. […] Primary CD4^+ PBMC were incubated with HIV-IIIB (FIG. 6) or HIV-JR-CSF for 3 hours in the presence or absence of 20 μg/ml retrocyclin. The cells were subsequently washed in media, and incubated an additional 9 days. Retrocyclin (20 μg/ml) was added back to some of the cultures at time points specified in FIG. 6 and infection was monitored by p24 ELISA as previously described. […]

primary HIV-1 isolates = details: previous assays; included as negative control
From the text: Viral isolates. Primary HIV-1 isolates were obtained from Institutional Review Board-approved Centers for Disease Control and Prevention (CDC) Studies or from the National Institutes of Health Research and Reference Reagent Program and World Health Organization collaborative network. Detailed characteristics of the CDC isolates, including subtype determination based on the envelope region, and co-receptor usage using GHOST cell lines have been described elsewhere. For viruses obtained from the NIH Research and Reference Reagent Program, the reported subtype and co-receptor data were used as supplied. Viral stocks were generated by infecting CD8-depleted normal human peripheral blood mononuclear cells. After filtration through 0.22-μm filters, aliquots of the stocks were stored at −70° C. until used.
Reporter gene-based viral replication assay. JC53-BL cells, an HIV-1 reporter cell line derived from HeLa cells that expresses high levels of CD4 and the HIV co-receptors CXCR4 and CCR5, were a gift of Tranzyme Inc. (Birmingham, Ala.). The JC53-BL cells contain cassettes for luciferase and β-galactosidase, each driven by the HIV-1 LTR. HIV infection (tat production) can be detected either by measuring luciferase activity or by counting blue foci after staining the cells with “X-Gal” (5-Bromo-4-chloro-3-indolyl β-D-galactopyranoside), as described elsewhere in detail. The JC53-BL cells were maintained in Dulbecco's modified Eagle medium supplemented with 10% fetal calf serum. (HyClone, Logan, Utah), 2 mM glutamine (Gibco), 100 units per ml penicillin G and 100 μg/ml streptomycin (GIBCO™, Invitrogen Corp., San Diego, Calif.). Viral titers were determined by adding serial dilutions of the virus stocks, in triplicate, to wells containing 20,000 JC53-BL cells, after supplementing the above medium with 40 μg/ml DEAE (diethylaminoethyl)-dextran. After a 48 hour incubation at 37° C. in 5% CO2, the cells were fixed and stained for β galactosidase, and the blue foci were counted with a light microscope. Multiplicity of infection (MOI) values were taken from the infectious unit data.
In vitro infections were carried out in the presence or absence of θ-defensin peptides. Briefly, JC53-BL cells were harvested from T-150 flasks approximately 18 hours prior to starting the assay with 0.1 mM EDTA in 0.017 M PBS, pH 7.4. The cells were washed and transferred to sterile white 96-well plates (Thermo Labsystems, Franklin, Mass.) at a density of 20,000 cells in 50 μl of medium. […] After this 3-hour preincubation with peptides, viruses were added in media containing 40 μg/ml DEAE-dextran. The final volume was 200 μl per well, and the multiplicity of infection (viruses/cell) ranged from 0.009 to 0.65. After the plates had incubated at 37° C. in 5% CO2 for 48 hours, luciferase activity was measured with the Steady-Glo Luciferase Assay System (Promega, Madison, Wis.), using the manufacturer's lysis protocol. Relative light intensity was measured with a Tecan luminometer running Magellan software (Tecan, Research Triangle Park, N.C.) and reported as relative light units (RLU). Each plate contained three sets of quadruplicate controls: media-only (background), virus-only (peptide-free), and recombinant luciferase. Samples were run in duplicate and the % inhibition was calculated from the mean values using the formula: % Inhibition=1−(average RLU peptide+virus wells/average RLU virus only wells)×100.
Fifty-percent inhibitory concentration values (IC50) were calculated using the predicted exponential growth function in Microsoft Excel, which uses known x-y values to estimate a given x value (in this case concentration of peptide) that would correspond to a given y value (in this case IC50). Statistical comparisons were by paired t-tests, unless otherwise noted.

HIV-1 strain IIIB [2] = assay: HIV-1 IIIB infection of H9 cells, p24 antigen ELISA; type: cell-based; details: H9 cells, IIIB (X4), peptide 10-20 μg/ml
Protocol: FIG. 1. Circular minidefensins reduce HIV-1 infection of H9 cells. HIV-I strain IIIB (MOI=10^−2) was incubated with 2.5×10^5 H9 cells in the presence or absence of 20 μg/ml RTD-1, RTD-2 or RTD-3. p24 antigen release was monitored by ELISA on days 3, 6, and 9. Assay sensitivity=10 pg/ml.
Immortalized CD4^+ H9 cells, which are permissive for infection with this strain, were maintained in RPMI supplemented with 10% heat-inactivated fetal calf serum (FCS), 10 mM HEPES, 2 mM glutamine, 100 U of penicillin/ml, and 10 μg of streptomycin/ml (R10 media). Cells (2.5×10^5/100 μl) were incubated with virus (multiplicity of infection (MOI)=10^−2) in the presence or absence of 20 μg/ml RTD-1, RTD-2 or RTD-3 for 3 hrs at 37° C./5% CO2. The cells were washed in R10 media, seeded in 48-well tissue culture plates in 1 ml R10 media, and incubated at 37° C./5% CO2 for 9 days. Aliquots of cell supernatant were removed at the specified time points and analyzed by a sensitive ELISA (DuPont NEN) that quantitates p24 antigen of HIV-1. The three circular rhesus minidefensins were similarly active, inhibiting HIV-1 by 100-1000 fold by 9 days post-inoculation (note the logarithmic scale).
as §1
Mature retrocyclin was prepared by a three-step process.

Molecule: I6Y-Retrocyclin (cyclo(GICRCYCGRGICRCICGR); disulfide (positions not given here); ring closure inferred; not fully specified (bridges)) [RC-102, cyclic …]
- protection against HSV-2 (HSV-2): less antiviral than retrocyclin
- inhibition of HIV-1 replication (p24) (HIV-1 strain JR-CSF): considerable ability to protect cells; also recorded: substantial activity
- inhibition of HIV-1 replication (p24) (HIV-1 strain IIIB [1]): either inactive or only modestly active; also recorded: relatively ineffective

Molecule: I15Y-Retrocyclin (cyclo(GICRCICGRGICRCYCGR); disulfide (positions not given here); ring closure inferred; not fully specified (bridges)) [RC-103]
- protection against HSV-2 (HSV-2): less antiviral than retrocyclin
- inhibition of HIV-1 replication (p24) (HIV-1 strain JR-CSF): considerable ability to protect cells; also recorded: substantial activity
- inhibition of HIV-1 replication (p24) (HIV-1 strain IIIB [1]): either inactive or only modestly active; also recorded: relatively ineffective

Molecule: R4Y-Retrocyclin [RC-106]
- anti-HIV activity (primary HIV-1 isolates): little or no anti-HIV activity
- inhibition of HIV-1 replication (p24) (HIV-1 strain JR-CSF): lack of efficacy
- inhibition of HIV-1 replication (p24) (HIV-1 strain IIIB [1]): either inactive or only modestly active; also recorded: lack of efficacy

Molecule: R13Y-Retrocyclin (cyclo(GICICICGRGICYCICGR); disulfide (positions not given here); ring closure inferred; not fully specified (bridges)) [RC-108]
- inhibition of HIV-1 replication (p24) (HIV-1 strain JR-CSF): lack of efficacy
- inhibition of HIV-1 replication (p24) (HIV-1 strain IIIB [1]): either inactive or only modestly active; also recorded: lack of efficacy

B1: RTD-2: rhesus circular minidefensin, homodimer of two identical nonapeptide elements (SEQ ID NO:17) (peptide, listed as Macaca mulatta)
chain: MRTFALLTAMLLLVALHAQAEARQARADEAAAQQQPGADDQGMAHSFTRPENAALPLSESARGLRCLCRRGVCQLL
modifications: cyclic homodimer of two nonapeptides; SIGNAL (1)...(20)
- inhibition of HIV-1 replication (p24) (HIV-1 strain IIIB [2]): protective to a lesser extent than retrocyclin

B2: RTD-3: rhesus circular minidefensin, homodimer of two identical nonapeptide elements (SEQ ID NO:15) (peptide, listed as Macaca mulatta)
chain: B1 chain with A38T, R49W, R62K, L67I, R69T, V72F, Q74R
modifications: cyclic homodimer of two nonapeptides; SIGNAL (1)...(20)
- inhibition of HIV-1 replication (p24) (HIV-1 strain IIIB [2]): protective to a lesser extent than retrocyclin
